According to patent US11524966B1 (Valo Early Discovery, Inc., priority 2017, dated 2022):

What follows are molecules tested against T1, USP25 (USP25-His6, Boston Biochem E-546) (Homo sapiens, UniProt Q9UHP3) (assay: Ubiquitin-Rhodamine 110 Assay for USP25 Activity, Example A-2). Conditions: Ubiquitin-Rhodamine 110 assay, Example A-2; read-out: USP25 A-2 IC50 range.
T1 construct: His6; purchased Boston Biochem E-546
T1 sequence (Q9UHP3 1-1055): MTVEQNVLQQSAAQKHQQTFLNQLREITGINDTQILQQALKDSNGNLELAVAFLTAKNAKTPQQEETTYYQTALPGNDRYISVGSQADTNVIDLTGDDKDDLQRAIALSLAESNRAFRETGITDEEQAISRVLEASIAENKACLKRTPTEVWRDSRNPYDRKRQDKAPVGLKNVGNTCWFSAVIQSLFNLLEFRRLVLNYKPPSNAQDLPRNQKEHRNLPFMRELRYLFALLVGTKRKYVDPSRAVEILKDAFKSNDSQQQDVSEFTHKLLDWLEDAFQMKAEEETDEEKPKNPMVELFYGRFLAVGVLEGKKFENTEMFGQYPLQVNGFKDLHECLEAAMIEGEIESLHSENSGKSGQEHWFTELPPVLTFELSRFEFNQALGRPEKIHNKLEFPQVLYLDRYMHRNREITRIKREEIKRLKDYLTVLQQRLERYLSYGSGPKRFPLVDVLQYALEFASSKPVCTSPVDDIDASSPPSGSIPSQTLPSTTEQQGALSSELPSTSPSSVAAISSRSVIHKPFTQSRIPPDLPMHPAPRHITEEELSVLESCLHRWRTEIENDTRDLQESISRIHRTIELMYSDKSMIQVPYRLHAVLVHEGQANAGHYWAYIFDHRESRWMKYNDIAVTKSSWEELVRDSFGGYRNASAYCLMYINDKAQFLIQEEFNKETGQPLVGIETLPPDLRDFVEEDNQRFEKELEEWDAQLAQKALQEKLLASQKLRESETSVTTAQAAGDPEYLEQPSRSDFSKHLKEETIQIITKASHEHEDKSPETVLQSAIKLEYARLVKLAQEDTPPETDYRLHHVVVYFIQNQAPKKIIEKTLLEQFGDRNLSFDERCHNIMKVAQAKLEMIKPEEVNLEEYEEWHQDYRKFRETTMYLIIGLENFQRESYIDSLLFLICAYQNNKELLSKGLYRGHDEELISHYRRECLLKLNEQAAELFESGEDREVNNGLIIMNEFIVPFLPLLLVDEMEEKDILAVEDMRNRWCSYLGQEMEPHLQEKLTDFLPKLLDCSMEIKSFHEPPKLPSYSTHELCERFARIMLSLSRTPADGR
Type: biochemical
Procedure, shortened: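 75 pM USP25-His6 was preincubated 30 min with compound (10-point 3-fold series, 25 μM–1.3 nM) in pH 8.0 Tris buffer with BME, BGG and Triton X-100. Then 25 nM Ub-Rh110 (<<Km) was added for 45 min at room temperature, stopped with citric acid, fluorescence read at 485/535 nm, IC50 by 4-parameter fit.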

Question: How did the IC50 turn out when `CO[C@]1(C)CN(c2ccc3c(c2)OC[C@H](NC(=O)c2sc4nc(C)ccc4c2N)C3)C[C@H]1N` [Example 282, 3-amino-N-[(3R)-7-[(3R,4R)-4-amino-3-methoxy-3-methylpyrrolidin-1-yl]-3,4-dihydro-2H-1-benzopyran-3-yl]-6-methylthieno[2,3-b]pyridine-2-carboxamide] was run?
Answer: The IC50 was 0.2 to 2 µM.

Question: With `CO[C@@H]1[C@@H](N)CN(c2ccc3c(c2)OC[C@H](NC(=O)c2sc4nc(C)ccc4c2N)C3)[C@H]1C` [Example 283, 3-amino-N-[(3R)-7-[(2S,3R,4S)-4-amino-3-methoxy-2-methylpyrrolidin-1-yl]-3,4-dihydro-2H-1-benzopyran-3-yl]-6-methylthieno[2,3-b]pyridine-2-carboxamide] as the molecule, how does the IC50 read?
Answer: The IC50 was 0.05 to 0.2 µM.

Question: `CO[C@H]1[C@H](N)CN(c2ccc3c(c2)OC[C@H](NC(=O)c2sc4nc(C)ccc4c2N)C3)[C@@H]1C` [Example 284, 3-amino-N-[(3R)-7-[(2R,3S,4R)-4-amino-3-methoxy-2-methylpyrrolidin-1-yl]-3,4-dihydro-2H-1-benzopyran-3-yl]-6-methylthieno[2,3-b]pyridine-2-carboxamide] was tested. Which IC50 did it give?
Answer: The IC50 was 0.05 to 0.2 µM.

Question: `Cc1ccc2c(N)c(C(=O)N[C@H]3CCc4nc(N5C[C@H](OC6CCC6)[C@@H](N)C5)ccc4C3)sc2n1` [Example 285, 3-amino-N-[(6S)-2-[(3S,4S)-3-amino-4-cyclobutoxypyrrolidin-1-yl]-5,6,7,8-tetrahydroquinolin-6-yl]-6-methylthieno[2,3-b]pyridine-2-carboxamide] was tested. Which IC50 did it give?
Answer: Its IC50 is over 2 µM.

Question: Which IC50 does the source give for `CO[C@H]1CN(c2ccc3c(n2)OC[C@H](NC(=O)c2sc4nc(C)cc(C)c4c2N)C3)C[C@@H]1N` [Example 286, 3-amino-N-[(3R)-7-[(3S,4S)-3-amino-4-methoxypyrrolidin-1-yl]-2H,3H,4H-pyrano[2,3-b]pyridin-3-yl]-4,6-dimethylthieno[2,3-b]pyridine-2-carboxamide] here?
Answer: Its IC50 is over 2 µM.

Question: `Cc1ccc2c(N)c(C(=O)N[C@H]3COc4nc(N5C[C@H](OC(C)C)[C@@H](N)C5)ccc4C3)sc2n1` [Example 287, 3-amino-N-[(3R)-7-[(3S,4S)-3-amino-4-(propan-2-yloxy)pyrrolidin-1-yl]-2H,3H,4H-pyrano[2,3-b]pyridin-3-yl]-6-methylthieno[2,3-b]pyridine-2-carboxamide] was tested. Which IC50 did it give?
Answer: The IC50 was over 2 µM.

Question: For `Cc1ccc2c(N)c(C(=O)N[C@H]3COc4cc(N5CC[C@@H](N)C5)ccc4C3)sc2n1` [Example 288, 3-amino-N-[(3R)-7-[(3R)-3-aminopyrrolidin-1-yl]-3,4-dihydro-2H-1-benzopyran-3-yl]-6-methylthieno[2,3-b]pyridine-2-carboxamide], which IC50 is on record?
Answer: The IC50 was 0.2 to 2 µM.

Question: With `CO[C@]12CNC[C@H]1CN(c1ccc3c(c1)OC[C@H](NC(=O)c1sc4nc(C)ccc4c1N)C3)C2` [Example 291, N-[(3R)-7-[(3aS,6aS)-3a-methoxy-octahydropyrrolo[3,4-c]pyrrol-2-yl]-3,4-dihydro-2H-1-benzopyran-3-yl]-3-amino-6-methylthieno[2,3-b]pyridine-2-carboxamide] as the molecule, how does the IC50 read?
Answer: The IC50 was 0.2 to 2 µM.

Question: `CO[C@@]12CNC[C@@H]1CN(c1ccc3c(c1)OC[C@H](NC(=O)c1sc4nc(C)ccc4c1N)C3)C2` [Example 292, N-[(3R)-7-[(3aR,6aR)-3a-methoxy-octahydropyrrolo[3,4-c]pyrrol-2-yl]-3,4-dihydro-2H-1-benzopyran-3-yl]-3-amino-6-methylthieno[2,3-b]pyridine-2-carboxamide] was tested. Which IC50 did it give?
Answer: Its IC50 is 0.2 to 2 µM.

Question: Which IC50 does the source give for `CO[C@H]1CN(c2ccc3c(n2)CC[C@H](NC(=O)c2sc4nc(C)cc(C)c4c2N)C3)C[C@@H]1NC(C)=O` [Example 293, 3-amino-N-[(6S)-2-[(3S,4S)-3-acetamido-4-methoxypyrrolidin-1-yl]-5,6,7,8-tetrahydroquinolin-6-yl]-4,6-dimethylthieno[2,3-b]pyridine-2-carboxamide] here?
Answer: Its IC50 is over 2 µM.

Question: `Cc1ccc2c(N)c(C(=O)N[C@H]3COc4cc(N5C[C@H](C(F)F)[C@@H](N)C5)ccc4C3)sc2n1` [Example 294, 3-amino-N-[(3R)-7-[(3R,4S)-3-amino-4-(difluoromethyl)pyrrolidin-1-yl]-3,4-dihydro-2H-1-benzopyran-3-yl]-6-methylthieno[2,3-b]pyridine-2-carboxamide] was tested. Which IC50 did it give?
Answer: The IC50 was 0.05 to 0.2 µM.

Question: `Cc1ccc2c(N)c(C(=O)N[C@H]3COc4cc(N5C[C@@H](N)[C@H](C(F)F)C5)ccc4C3)sc2n1` [Example 295, 3-amino-N-[(3R)-7-[(3S,4R)-3-amino-4-(difluoromethyl)pyrrolidin-1-yl]-3,4-dihydro-2H-1-benzopyran-3-yl]-6-methylthieno[2,3-b]pyridine-2-carboxamide] was tested. Which IC50 did it give?
Answer: The IC50 was 0.05 to 0.2 µM.

Question: `COC[C@@H]1CN(c2ccc3c(n2)CC[C@H](NC(=O)c2sc4nc(C)cc(C)c4c2N)C3)C[C@@H]1N` [Example 296, 3-amino-N-[(6S)-2-[(3R,4R)-3-amino-4-(methoxymethyl)pyrrolidin-1-yl]-5,6,7,8-tetrahydroquinolin-6-yl]-4,6-dimethylthieno[2,3-b]pyridine-2-carboxamide-] was tested. Which IC50 did it give?
Answer: The IC50 was over 2 µM.

Question: `COC[C@H]1CN(c2ccc3c(n2)CC[C@H](NC(=O)c2sc4nc(C)cc(C)c4c2N)C3)C[C@H]1N` [Example 297, 3-amino-N-[(6S)-2-[(3S,4S)-3-amino-4-(methoxymethyl)pyrrolidin-1-yl]-5,6,7,8-tetrahydroquinolin-6-yl]-4,6-dimethylthieno[2,3-b]pyridine-2-carboxamide] was tested. Which IC50 did it give?
Answer: The IC50 was 0.2 to 2 µM.

Question: How did the IC50 turn out when `COC[C@@H]1CN(c2ccc3c(n2)CC[C@H](NC(=O)c2sc4nc(C)cnc4c2N)C3)C[C@@H]1N` [Example 298, 7-amino-N-[(6S)-2-[(3R,4R)-3-amino-4-(methoxymethyl)pyrrolidin-1-yl]-5,6,7,8-tetrahydroquinolin-6-yl]-3-methylthieno[2,3-b]pyrazine-6-carboxamide] was run?
Answer: The IC50 was over 2 µM.

Question: `COC[C@H]1CN(c2ccc3c(n2)CC[C@H](NC(=O)c2sc4nc(C)cnc4c2N)C3)C[C@H]1N` [Example 299, 7-amino-N-[(6S)-2-[(3S,4S)-3-amino-4-(methoxymethyl)pyrrolidin-1-yl]-5,6,7,8-tetrahydroquinolin-6-yl]-3-methylthieno[2,3-b]pyrazine-6-carboxamide] was tested. Which IC50 did it give?
Answer: Its IC50 is 0.2 to 2 µM.

Question: For `COC[C@@H]1CN(c2nc3c(cc2F)C[C@@H](NC(=O)c2sc4nc(C)ccc4c2N)CC3)C[C@@H]1N` [Example 300, 3-amino-N-[(6S)-2-[(3R,4R)-3-amino-4-(methoxymethyl)pyrrolidin-1-yl]-3-fluoro-5,6,7,8-tetrahydroquinolin-6-yl]-6-methylthieno[2,3-b]pyridine-2-carboxamide], which IC50 is on record?
Answer: The IC50 was over 2 µM.

Question: How did the IC50 turn out when `COC[C@H]1CN(c2nc3c(cc2F)C[C@@H](NC(=O)c2sc4nc(C)ccc4c2N)CC3)C[C@H]1N` [Example 301, 3-amino-N-[(6S)-2-[(3S,4S)-3-amino-4-(methoxymethyl)pyrrolidin-1-yl]-3-fluoro-5,6,7,8-tetrahydroquinolin-6-yl]-6-methylthieno[2,3-b]pyridine-2-carboxamide] was run?
Answer: Its IC50 is over 2 µM.

Question: With `Cc1ccc2c(N)c(C(=O)N[C@H]3COc4cc(N5C[C@@H]6CCN[C@@H]6C5)ccc4C3)sc2n1` [Example 304, N-[(3R)-7-[(3aS,6aS)-octahydropyrrolo[3,4-b]pyrrol-5-yl]-3,4-dihydro-2H-1-benzopyran-3-yl]-3-amino-6-methylthieno[2,3-b]pyridine-2-carboxamide] as the molecule, how does the IC50 read?
Answer: The IC50 was 0.2 to 2 µM.

Question: `Cc1ccc2c(N)c(C(=O)N[C@H]3COc4cc(N5C[C@H]6CCN[C@H]6C5)ccc4C3)sc2n1` [Example 305, N-[(3R)-7-[(3aR,6aR)-octahydropyrrolo[3,4-b]pyrrol-5-yl]-3,4-dihydro-2H-1-benzopyran-3-yl]-3-amino-6-methylthieno[2,3-b]pyridine-2-carboxamide] was tested. Which IC50 did it give?
Answer: Its IC50 is 0.05 to 0.2 µM.

Question: With `Cc1ccc2c(N)c(C(=O)N[C@H]3COc4cc(N5CCC6(CNC6)C5)ccc4C3)sc2n1` [Example 306, 3-amino-N-[(3R)-7-{2,6-diazaspiro[3.4]octan-6-yl}-3,4-dihydro-2H-1-benzopyran-3-yl]-6-methylthieno[2,3-b]pyridine-2-carboxamide] as the molecule, how does the IC50 read?
Answer: Its IC50 is 0.2 to 2 µM.

Question: Which IC50 does the source give for `Cc1ccc2c(N)c(C(=O)N[C@H]3COc4cc(N5C[C@H](N)[C@]6(CCCO6)C5)ccc4C3)sc2n1` [Example 307, 3-amino-N-[(3R)-7-[(5S,9S)-9-amino-1-oxa-7-azaspiro[4.4]nonan-7-yl]-3,4-dihydro-2H-1-benzopyran-3-yl]-6-methylthieno[2,3-b]pyridine-2-carboxamide] here?
Answer: Its IC50 is 0.2 to 2 µM.
